Assay results taken from ChEMBL document CHEMBL1681651, “A broad spectrum anticancer nucleoside with selective toxicity against human colon cells in vitro” (2011).

Legend:
Type in all cases: functional
[1] = test system: ACHN; assay: Growth inhibition of human ACHN cells assessed as cell growth at 1 uM after 48 hrs by SRB assay; conditions: read-out: Activity
[2] = test system: TK-10; assay: Growth inhibition of human TK10 cells assessed as cell growth at 1 uM after 48 hrs by SRB assay; conditions: TK-10, 48 h, read-out: Activity
[3] = Growth inhibition of human […] cells assessed as cell growth at 10 uM after 48 hrs by SRB assay; conditions: read-out: Activity
[4] = test system: HOP-92; assay: Growth inhibition of human HOP92 cells assessed as cell growth at 10 uM after 48 hrs by SRB assay; conditions: HOP-92, 48 h, read-out: Activity
[5] = test system: SF-268; assay: Growth inhibition of human SF268 cells assessed as cell growth at 10 uM after 48 hrs by SRB assay; conditions: SF-268, 48 h, read-out: Activity
[6] = test system: HCT-15; assay: Growth inhibition of human HCT15 cells after 48 hrs by […] growth inhibition assay; conditions: HCT-15, 48 h
[7] = test system: SF-268; assay: Growth inhibition of human SF268 cells after 48 hrs by […] growth inhibition assay; conditions: SF-268, 48 h
[8] = test system: ACHN; assay: Growth inhibition of human ACHN cells after 48 hrs by […] growth inhibition assay
[9] = test system: RXF 393; assay: Growth inhibition of human RXF393 cells after 48 hrs by […] growth inhibition assay; conditions: RXF 393, 48 h
[10] = test system: TK-10; assay: Growth inhibition of human TK10 cells after 48 hrs by […] growth inhibition assay; conditions: TK-10, 48 h
[11] = test system: NCI-H226; assay: Growth inhibition of human NCI-H226 cells assessed as cell growth at 0.1 uM after 48 hrs by SRB assay; conditions: NCI-H226, 48 h, read-out: Activity
[12] = test system: NCI-H23; assay: Growth inhibition of human NCI-H23 cells assessed as cell growth at 0.1 uM after 48 hrs by SRB assay; conditions: NCI-H23, 48 h, read-out: Activity
[13] = test system: HCC 2998; assay: Growth inhibition of human HCC2998 cells assessed as cell growth at 0.1 uM after 48 hrs by SRB assay; conditions: HCC 2998, 48 h, read-out: Activity
[14] = test system: U-251; assay: Growth inhibition of human U251 cells assessed as cell growth at 0.1 uM after 48 hrs by SRB assay; conditions: U-251, 48 h, read-out: Activity
[15] = test system: SK-MEL-5; assay: Growth inhibition of human SK-MEL-5 cells assessed as cell growth at 0.1 uM after 48 hrs by SRB assay; conditions: SK-MEL-5, 48 h, read-out: Activity
[16] = test system: LOX IMVI; assay: Growth inhibition of human LOXIMVI cells assessed as cell growth at 10 uM after 48 hrs by SRB assay; conditions: read-out: Activity
[17] = test system: SK-MEL-5; assay: Growth inhibition of human SK-MEL-5 cells assessed as cell growth at 10 uM after 48 hrs by SRB assay; conditions: SK-MEL-5, 48 h, read-out: Activity
[18] = test system: A498; assay: Growth inhibition of human A498 cells assessed as cell growth at 10 uM after 48 hrs by SRB assay; conditions: A498, 48 h, read-out: Activity
[19] = test system: UO-31; assay: Growth inhibition of human UO31 cells assessed as cell growth at 10 uM after 48 hrs by SRB assay; conditions: UO-31, 48 h, read-out: Activity
[20] = test system: MDA-MB-435; assay: Growth inhibition of human MDA-MB-435 cells assessed as cell growth at 10 uM after 48 hrs by SRB assay; conditions: MDA-MB-435, 48 h, read-out: Activity
[21] = test system: IGROV-1; assay: Growth inhibition of human IGROV1 cells assessed as cell growth at 100 uM after 48 hrs by SRB assay; conditions: IGROV-1, 48 h, read-out: Activity
[22] = test system: 786-0; assay: Growth inhibition of human 786-0 cells assessed as cell growth at 100 uM after 48 hrs by SRB assay; conditions: 786-0, 48 h, read-out: Activity
[23] = test system: CAKI-1; assay: Growth inhibition of human Caki1 cells assessed as cell growth at 100 uM after 48 hrs by SRB assay; conditions: CAKI-1, 48 h, read-out: Activity
[24] = test system: TK-10; assay: Growth inhibition of human TK10 cells assessed as cell growth at 100 uM after 48 hrs by SRB assay; conditions: TK-10, 48 h, read-out: Activity
[25] = test system: UO-31; assay: Growth inhibition of human UO31 cells assessed as cell growth at 100 uM after 48 hrs by SRB assay; conditions: UO-31, 48 h, read-out: Activity
[26] = test system: NCI/ADR-RES; assay: Growth inhibition of human NCI/ADR-RES cells assessed as cell growth at 100 uM after 48 hrs by SRB assay; conditions: read-out: Activity
[27] = test system: BT-549; assay: Growth inhibition of human BT549 cells assessed as cell growth at 100 uM after 48 hrs by SRB assay; conditions: BT-549, 48 h, read-out: Activity
[28] = test system: M14; assay: Growth inhibition of human M14 cells assessed as cell growth at 1 mM after 48 hrs by SRB assay; conditions: M14, 48 h, read-out: Activity
[29] = test system: SK-MEL-2; assay: Growth inhibition of human SK-MEL-2 cells assessed as cell growth at 1 mM after 48 hrs by SRB assay; conditions: SK-MEL-2, 48 h, read-out: Activity
[30] = test system: UACC-62; assay: Growth inhibition of human UACC62 cells assessed as cell growth at 1 mM after 48 hrs by SRB assay; conditions: UACC-62, 48 h, read-out: Activity
[31] = test system: ACHN; assay: Growth inhibition of human ACHN cells assessed as cell growth at 1 mM after 48 hrs by SRB assay; conditions: read-out: Activity
[32] = test system: TK-10; assay: Growth inhibition of human TK10 cells assessed as cell growth at 1 mM after 48 hrs by SRB assay; conditions: TK-10, 48 h, read-out: Activity
[33] = test system: NCI-H23; assay: Growth inhibition of human NCI-H23 cells assessed as cell growth at 1 uM after 48 hrs by SRB assay; conditions: NCI-H23, 48 h, read-out: Activity
[34] = test system: Malme-3M; assay: Growth inhibition of human MALME-3M cells assessed as cell growth at 1 uM after 48 hrs by SRB assay; conditions: read-out: Activity
[35] = test system: OVCAR-8; assay: Growth inhibition of human OVCAR8 cells assessed as cell growth at 1 uM after 48 hrs by SRB assay; conditions: OVCAR-8, 48 h, read-out: Activity
[36] = read-out: LC50 (the source's name)
[37] = read-out: pLC50 (the source's name) (converted)

CCOC(=O)C[C@H]1[C@@H](O[Si](C)(C)C(C)(C)C)[C@H](n2cnc3c(NC(=O)Nc4ccccc4)ncnc32)O[C@@H]1CNC(=O)NC
growth at 1 µM [1]: 97% | growth at 1 µM [2]: 103% | growth at 10 µM [3]: 53% | growth at 10 µM [4]: 12% | growth at 10 µM [5]: 93% | GI50 ([6]; read-out: GI50): 8.5 µM | CC50 [6, 36]: > 100 µM | TGI ([6]; read-out: TGI): > 100 µM | GI50 ([6]; read-out: pGI50 (converted)): 8.51 µM | CC50 [6, 37]: > 100 µM | TGI ([6]; read-out: pTGI): > 100 µM | GI50 ([7]; read-out: GI50): 6.53 µM | CC50 [7, 36]: 92.5 µM | TGI ([7]; read-out: TGI): 27 µM | GI50 ([7]; read-out: pGI50 (converted)): 6.61 µM | CC50 [7, 37]: 93.3 µM | TGI ([7]; read-out: pTGI (converted)): 26.9 µM | GI50 ([8]; read-out: GI50): 8.55 µM | CC50 [8, 36]: > 100 µM | TGI ([8]; read-out: TGI): > 100 µM | GI50 ([8]; read-out: pGI50 (converted)): 8.51 µM | CC50 [8, 37]: > 100 µM | TGI ([8]; read-out: pTGI): > 100 µM | GI50 ([9]; read-out: GI50): 2.01 µM | CC50 [9, 36]: 19.5 µM | TGI ([9]; read-out: TGI): 4.63 µM | GI50 ([9]; read-out: pGI50 (converted)): 2 µM | CC50 [9, 37]: 19.5 µM | TGI ([9]; read-out: pTGI (converted)): 4.68 µM | GI50 ([10]; read-out: GI50): 12.4 µM | CC50 [10, 36]: > 100 µM | TGI ([10]; read-out: TGI): 40.5 µM | GI50 ([10]; read-out: pGI50 (converted)): 12.3 µM | CC50 [10, 37]: > 100 µM | TGI ([10]; read-out: pTGI (converted)): 40.7 µM | growth at 0.1 µM [11]: 101% | growth at 0.1 µM [12]: 101% | growth at 0.1 µM [13]: 101% | growth at 0.1 µM [14]: 98% | growth at 0.1 µM [15]: 96% | growth at 10 µM [16]: 93% | growth at 10 µM [17]: 89% | growth at 10 µM [18]: 91% | growth at 10 µM [19]: 82% | growth at 10 µM [20]: 89% | growth at 100 µM [21]: 20% | growth at 100 µM [22]: -34% | growth at 100 µM [23]: 88% | growth at 100 µM [24]: 59% | growth at 100 µM [25]: 61% | growth at 100 µM [26]: 80% | growth at 100 µM [27]: 67% | growth at 1000 µM [28]: -56% | growth at 1000 µM [29]: -30% | growth at 1000 µM [30]: 60% | growth at 1000 µM [31]: 35% | growth at 1000 µM [32]: -38% | growth at 1 µM [33]: 100% | growth at 1 µM [34]: 95% | growth at 1 µM [35]: 100%

CNC(=O)NC[C@H]1O[C@@H](n2cnc3c(NC(=O)Nc4ccccc4)ncnc32)[C@H](O[Si](C)(C)C(C)(C)C)[C@@H]1CC(=O)N(C)OC
growth at 1 µM [1]: 102% | growth at 1 µM [2]: 106% | growth at 10 µM [3]: 69% | growth at 10 µM [4]: 67% | growth at 10 µM [5]: 91% | GI50 ([6]; read-out: GI50): 6.47 µM | CC50 [6, 36]: > 100 µM | TGI ([6]; read-out: TGI): > 100 µM | GI50 ([6]; read-out: pGI50 (converted)): 6.46 µM | CC50 [6, 37]: > 100 µM | TGI ([6]; read-out: pTGI): > 100 µM | GI50 ([7]; read-out: GI50): 8.29 µM | CC50 [7, 36]: > 100 µM | TGI ([7]; read-out: TGI): > 100 µM | GI50 ([7]; read-out: pGI50 (converted)): 8.32 µM | CC50 [7, 37]: > 100 µM | TGI ([7]; read-out: pTGI (converted)): > 100 µM | GI50 ([8]; read-out: GI50): 14.4 µM | CC50 [8, 36]: > 100 µM | TGI ([8]; read-out: TGI): > 100 µM | GI50 ([8]; read-out: pGI50 (converted)): 14.5 µM | CC50 [8, 37]: > 100 µM | TGI ([8]; read-out: pTGI): > 100 µM | GI50 ([9]; read-out: GI50): 9.74 µM | CC50 [9, 36]: > 100 µM | TGI ([9]; read-out: TGI): 38 µM | GI50 ([9]; read-out: pGI50 (converted)): 9.77 µM | CC50 [9, 37]: > 100 µM | TGI ([9]; read-out: pTGI (converted)): 38 µM | GI50 ([10]; read-out: GI50): 20.6 µM | CC50 [10, 36]: > 100 µM | TGI ([10]; read-out: TGI): > 100 µM | GI50 ([10]; read-out: pGI50 (converted)): 20.4 µM | CC50 [10, 37]: > 100 µM | TGI ([10]; read-out: pTGI (converted)): > 100 µM | growth at 0.1 µM [11]: 103% | growth at 0.1 µM [12]: 106% | growth at 0.1 µM [13]: 102% | growth at 0.1 µM [14]: 97% | growth at 0.1 µM [15]: 104% | growth at 10 µM [16]: 94% | growth at 10 µM [17]: 89% | growth at 10 µM [18]: 87% | growth at 10 µM [19]: 82% | growth at 10 µM [20]: 98% | growth at 100 µM [21]: 26% | growth at 100 µM [22]: 48% | growth at 100 µM [23]: 57% | growth at 100 µM [24]: 65% | growth at 100 µM [25]: 46% | growth at 100 µM [26]: 76% | growth at 100 µM [27]: 70% | growth at 1000 µM [28]: 18% | growth at 1000 µM [29]: -5% | growth at 1000 µM [30]: 39% | growth at 1000 µM [31]: 23% | growth at 1000 µM [32]: 17% | growth at 1 µM [33]: 103% | growth at 1 µM [34]: 88% | growth at 1 µM [35]: 106%
